# Experimental data reported in patent US20040208919A1, “Vaccination against prion diseases” (priority 2002, published 2004).
# Where “and” joins values, the source holds several entries; their conditions need not be identical. Identical values can stand only once.
# Test system: primary rat hippocampal neurons
# Assay type: cell-based
Sequence,Cell death %,"Neuronal death, mode and dose dependence",Neurotoxicity compared with the other synthetic PrP fragments
WGQGGGTHSQWNKPSKPK [PrP 89-106],5 ± 2% and 2 ± 6%,–,–
WGQPHGGG [PrP 57-64],0 ± 5% and 3 ± 4%,–,–
"NGAKALMGGHGATKVMVGAAA [PrP 106-126 scrambled, reference compound]",3 ± 2% and 8 ± 3%,–,–
KTNMKHMAGAAAAGAVVGGLG [PrP 106-126],–,occurred by apoptosis in a dose dependent manner,most neurotoxic fragment
